# Tests used:
# c-MPL+ KHYG-1 cells = test: In vitro cell expansion of c-MPL+ KHYG-1 cells; format: cell-based, human
# From the text: (§1) Lentiviral production and transduction: Lentivirus gene expression vectors encoding EGFP-P2A linker-human EPOR or EGFP-P2A-human c-MPL were cloned according to our design by VectorBuilder (TX, USA). Plasmid DNA for the above and pCMV-dR8.2 dvpr and pCMV-VSV-G packaging plasmids was purified using ZymoPUREII-EndoZero plasmid maxiprep kit (Zymo Research, CA). Lentiviral particles were generated with HEK293T cells and Lipofectamine3000 reagent (Thermo Fisher Scientific, MA) following the manufacturers' instructions. Viral supernatant was harvested at 24 and 48 hours, pooled, and concentrated with lenti-X concentrator (Takara Bio, Japan) or by centrifugation at 18,600 rpm for 2 hours at 4° C. […] After 5 days post-transduction, cells were stained and sorted with fluorescence-activated cell sorting (FACS) using a BD FACSAria II to purify GFP^+EPOR^+ and GFP^+c-MPL^+ NK cell populations.
# (§2) In vitro cell expansion cultures: The NK-92 (5×10^4 cell/ml) and KHYG-1 (1×10^4 cell/ml) cells were cultured in 1 ml of complete medium in 24-well plate. […] Trypan blue negative cells were counted every other day. […] Viable cells were counted and percentage of GFP^+ cells was acquired on indicated days (NK: day 4 and 6, T: day 3 and 6). The fold change of GFP^+ cells was calculated by multiplying the counted cell number times the fraction GFP^+.
# GFP+ MPL+ NK cells = test: Degranulation assay and cytokine production, c-MPL-transduced primary NK cells with K562; format: cell-based, human
# Protocol: To examine degranulation, cells were washed after two hours and stained with anti-CD107a (H4A3) (BioLegend). To assay cytokine production, GolgiPlug and GolgiStop (BD Biosciences) were added at manufacturer's recommended concentrations within the first hour of co-culture with K562. After 4 hours, cells were washed and stained for cell surface markers, then stained intracellularly with mAb recognizing TNF-α (Mab 11) and IFN-γ (B27) (BD Biosciences).
# [1] = test system: GFP+ MPL+ transduced cells; test: Cell surface phenotype of c-MPL-transduced primary NK cells; format: cell-based, human
# Protocol: Human NK cells were stimulated and transduced with c-MPL/GFP lentiviral vectors. […] After 4 days, cellular function was assessed by mixing at a 1:1 ratio with K562 target cells and assessing (FIG. 13A) NK cell degranulation (by surface anti-CD107a staining) two hours later, or (FIG. 13B) intracellular IFN-γ and TNF-α four hours after addition of K562. Results for gated GFP transduced cells or independent untransduced cultures from the same donors are shown. The cell surface phenotype of the NK cells was also assessed after 4 days of culture with cytokines as indicated (FIG. 13C).
# Flow cytometry, reagents and pathway analysis: Fluorochrome-conjugated monoclonal antibodies were used as follows: BD Biosciences: CD56-PE-Cy7 (NCAM16.2), CD3-PE (UCHT1), c-MPL-PE (1.6.1), STAT5(pY694)-Alexa Fluor647 (47/stat5(pY694)), NKp46-APC (9E2), NKp44-PE (p44-8), FAS-PE (DX2) CD62L-V450 (DREG-56); R&D systems: EPOR-PE (FAB307P); Biolegend: Bc1-2-PE (100), TRAIL-APC (RIK-2), CXCR4-BV421 (12G5), KIR3DL1-BV421 (DX9); Abcam: Bcl-xL-PE (ab208747); Cell signaling technology: P-p44/42 MAPK-Alexa Fluor647 (E10) and p-S6 ribosomal protein-PE (D57.2.2E); Beckman Coulter: NKG2A-PE (Z199), KIR2DL1/S1-PE (EB6B), KIR2DL2/3-PE/Cy5.5 (GL183). Staining was performed in phosphate-buffered saline (PBS) with 2% FBS and 2 mM EDTA and analyzed on a BD LSRFortessa machine. […] The data were analyzed on FlowJo software.
# c-MPL transduced T cells = test: Competitive expansion of c-MPL-transduced primary T cells; format: cell-based, human
# Protocol: In vitro cell expansion cultures: The NK-92 (5×10^4 cell/ml) and KHYG-1 (1×10^4 cell/ml) cells were cultured in 1 ml of complete medium in 24-well plate. […] Trypan blue negative cells were counted every other day. […] For competitive primary NK and T cell expansion assay, all transduced cells (5×10^5/ml for NK and 4×10^5/ml for T cell) containing a mixture of GFP positive (transduced) and GFP negative (untransduced) cells were plated on day 0. Fresh medium with appropriate supplements was replaced every other day for NK cells and only on day 3 for T cell experiment. Viable cells were counted and percentage of GFP^+ cells was acquired on indicated days (NK: day 4 and 6, T: day 3 and 6). The fold change of GFP^+ cells was calculated by multiplying the counted cell number times the fraction GFP^+.
# [2] = test system: c-MPL transduced NK cells; test: Proliferation of c-MPL-expressing human NK cells with thrombopoietin mimetics; format: cell-based; details: 4-5 days culture
# Protocol: FIGS. 16A-16C show proliferation of human NK cells transduced to express GFP and c-MPL cultured for 4-5 days with the indicated concentrations of thrombopoietin (FIG. 16A), romiplostim (FIG. 16B), or eltrombopag (FIG. 16C). […] Mean and SEM of results from 3 blood donors are shown.
# NK cells from PBMC from three blood donors were stimulated and transduced to express GFP and c-MPL, then were cultured for 4-5 days with thrombopoietin, romiplostim, or eltrombopag.
# c-MPL+ NK-92 cells = test: In vitro cell expansion of c-MPL+ NK-92 cells; format: cell-based, human; details: day 8
# From the text: as §1, §2
substance,measurement,setting,value
"TPO: recombinant human thrombopoietin, ligand of the c-MPL receptor; 50 ng/ml rhTPO (R&D)",cell growth of transduced KHYG-1 cells,c-MPL+ KHYG-1 cells; TPO alone,insufficient to maintain cell growth
same,proliferative response of receptor-transduced KHYG-1 NK cells,c-MPL+ KHYG-1 cells; TPO with low-dose IL-2 (1 U/ml or 5 U/ml),synergized
same,degranulation in GFP+ MPL+ NK cells (CD107a),"GFP+ MPL+ NK cells; TPO added to 25 U/ml IL-2, 4 days, K562 1:1",83%
same,percent of GFP MPL transduced NK cells that produced IFN-γ or TNF-α,"GFP+ MPL+ NK cells; TPO added to 25 U/ml IL-2 vs 25 U/ml IL-2 alone, co-cultured with K562",considerably augmented
same,CD62L expression,"[1]; TPO added to media containing 25 U/ml IL-2, normalized to each donor",significantly increased CD62L expression
same,NK cell phenotype other than CD62L,[1]; TPO added to media containing 25 U/ml of IL-2,no phenotypic differences
same,GFP fold-expansion of c-MPL transduced T cells,"c-MPL transduced T cells; D6, TPO alone",5.96 fold
same,GFP fold-expansion of c-MPL+ activated T cells,"c-MPL transduced T cells; day 6, TPO plus LD IL-2",11.39 fold
same,proliferation of c-MPL transduced NK cells,[2],induce proliferation
same,fold expansion of c-MPL+ NK-92 cells,c-MPL+ NK-92 cells; TPO alone,7 fold
same,fold expansion of c-MPL+ NK-92 cells,c-MPL+ NK-92 cells; TPO plus 1 U/ml IL-2,23.25 fold

# — patent publication US20240024479A1, “NK CELLS OR T CELLS EXPRESSING CHIMERIC HEMATOPOIETIC GROWTH FACTOR RECEPTORS AND METHODS OF USE” (The United States of America, as represented by the …, priority 2020, published 2024)
